Measurements as given in patent US20260273028A1, “PEROXIDASE COMPOSITIONS CONTAINING IMPROVED ENHANCING AGENTS” (FLEN HEALTH PHARMA NV, priority 2022, published 2026).

Key:
S. aureus (ATCC®6538™) = experiment: Microbial challenge testing in alginogel with GOX+LPO; type: cell-based; conditions: for antimicrobial efficacy against S. aureus of halide alone, 0 vs 80 minute timepoint: alginogel, halide alone (without enzymes) 0.03% (v/v)
Procedure: To determine the ability of an antimicrobial agent to elicit an antimicrobial preserving efficacy in a gel environment, a microbiological challenge test can be performed. Here, the antimicrobial agent is a combination of the natural enzymes GOX+LPO. […] Microbial challenge testing was performed according to the method described in the European Pharmacopoeia current version chapter 5.1.3 ‘Efficacy of antimicrobial preservation’, but with adapted time points (0, 10, 20, 30, 40, 50, 60, 70 and 80 min instead of 0, 2, 7, 14 and 28 days). In brief, for every enhancing agent to be evaluated, a lab-scale alginogel (based on the Flaminal® formulation, but without the original enhancer guaiacol) including 0.0075% GOX+LPO (1:1) was prepared according to standard practices. Enhancing agents were added to the alginogel in a final concentration ranging from 0.01 to 0,00025% (v/w). As a reference, an alginogel including 0.0075% GOX+LPO (1:1) without the addition of any enhancing agent was included (designated as: enzymes only). As a control, an alginogel without both GOX+LPO (1:1) enzyme solution and enhancing agent (designated as: empty gel) as well as an alginogel only containing the enhancing agent only (designated as: enhancing candidate only) were included. After preparation, a homogenous sample of 10 g was transferred into a 50 ml conical tube for each alginogel to be evaluated and microorganism to be tested. For each test microorganism, including S. aureus (ATCC®6538™), P. aeruginosa (ATCC®9027™), C. albicans (ATCC®10231™) and A. niger (ATCC®16404 ™), a microbial suspension of about 10^8 CFU/ml was prepared in sterile diluent (buffered sodium chloride-peptone solution). Then, the 50 ml conical tubes containing the alginogel samples to be evaluated were inoculated with 100 μl of the designated inoculum. At the start (time point 0) and after 0, 10, 20, 30, 40, 50, 60, 70 and 80 min, the number of viable microorganisms per gram product (expressed as CFU/g) was determined by transferring a sample of 0.5 g of the product into a 15 ml conical tube containing 4.5 ml of sterile diluent and applying general dilution and plate count techniques. For each combination evaluated, this test was repeated at least 1-3 times. The collected data were further analyzed in MS Excel. Mean absolute counts (expressed as log CFU/g) were visualized in a graph.
The purpose of the hereby described experiment was to compare the efficacy of antimicrobial activity enhancement of the GOX+LPO (1:1) enzyme combination by ethanolamine and proline in a microbial challenge test using S. aureus. The test was set up as described in the section on ‘challenge testing’ in Example 2.4. The test was repeated at least 3 times.
The purpose of the hereby described experiment was to compare the efficacy of antimicrobial activity of the GOX+LPO (1:1) enzyme combination in the presence of potassium chloride/potassium bromide and potassium iodide. A microbial challenge test using S. aureus was performed. The test was set up as described in the section on ‘challenge testing’ in Example 2.4.

GOX = GOX (Aspergillus niger, UniProt P13006); experiment: Glucose oxidase (GOX) activity, spectrophotometric assay; type: biochemical; conditions: cysteine 1-0.1 mg/ml (FIG. 1)
Procedure: The natural enzyme GOX is an oxidoreductase that catalyses the oxidation of glucose to gluconic acid and hydrogen peroxide (H2O2) in the presence of water and air. To measure the enzymatic activity of GOX, a standard spectrophotometric assay is performed. In brief, a second oxidoreductase enzyme, peroxidase, and a chromogenic oxygen acceptor, o-dianisidine, are added to the former reaction mix (GOX+glucose+water+air) so that the formation of a coloured compound is achieved that can in turn be measured by spectrophotometry. GOX was tested in 4 different concentrations, i.e., 100, 50, 10 and 1 mg/ml. Each reaction mixture was tested in duplo. In the event GOX activity was evaluated in the presence of a potentiator candidate (=a molecule that might be able to augment the enzymatic activity of GOX), the latter was added in a low and high concentration ranging from 100 to 0.1 mg/ml. The blank consisted of the reaction mix in which the enzymes were absent. After mixing all reaction elements, absorbance was immediately measured with a plate reader (Spectramax ID3, Molecular Devices) every minute for 5 minutes at 35° C. For each combination evaluated, this test was repeated at least 2 times. Results were further analysed in MS Excel and expressed as U/g. Mean blank-corrected data±SD were plotted. Statistical significance compared to the combination without potentiator candidate (reference) was calculated using students' t-tests. Significance is achieved when the obtained p-value is lower than 0,05. Significance levels were defined as p<0.05=*; p<0.01=** and p<0.001=***.

[1] = system: Pseudomonas aeruginosa ATCC®9027™; experiment: MIC determination, broth microdilution, GOX+LPO with potentiator candidate; type: cell-based; conditions: P. aeruginosa; guaiacol added as enhancing agent
Procedure: (§1) The minimum inhibitory concentration (MIC) is defined as the lowest concentration of an antimicrobial agent that results in a complete inhibition of microbial growth (determined via visual evaluation or absorbance measurements) after overnight incubation. This endpoint measurement is used to define the microbial susceptibility towards an antimicrobial agent. Here, the antimicrobial agent is a combination of the natural enzymes GOX+LPO.
(§2) To determine the MIC of the described combinations, a classical broth microdilution assay was used to determine the susceptibility of a series of microbes commonly detected in infected wounds, including (a) the Gram-positive bacterium Staphylococcus aureus ATCC® 6538™ (results shown below), (b) the Gram-negative bacterium Pseudomonas aeruginosa ATCC®9027™ (results shown below), (c) the yeast Candida albicans ATCC®10231™ (results shown below), and (d) the fungus Aspergillus niger ATCC®16404™ (results shown below). In brief, a […] serial dilution of the enzymatic GOX+LPO solution was prepared in a transparent, flat-bottomed 96-well test plate with final concentrations ranging from 0.005 to 0.00000977% (v/v). To each well, a fixed volume of the enzymatic substrate containing 3,3% (w/v) glucose and 0,084% (w/v) potassium iodide, as well as the microbial inoculum with an OD600 of 0.1 was added. In the event the enzyme combination was evaluated in the presence of a potentiator candidate, the latter was added together with the enzymatic substrate in a final concentration ranging from 100 to 0,00125% (v/v). For each combination evaluated, a blank (no addition of microbial inoculum) was included. Positive (inoculum only) and negative (background solution only) were included to evaluate the performance of the test and to select the enzymatic GOX+LPO concentration at which no microbial growth is detected (i.e., absorbance equal to that of the background solution only). Then, the 96-well test plate was incubated for 24 hours at 37° C. (S. aureus, P. aeruginosa and C. albicans) or 25° C. (A. niger). After incubation, the absorbance of each well was measured using a plate spectrophotometer (Spectramax ID3, Molecular Devices). For each combination evaluated, this test was repeated at least 5 times. The collected data were further analyzed in MS Excel. Mean absorbance data were visualized in a table format in which the MIC was highlighted.

[2] = system: Staphylococcus aureus ATCC® 6538™; experiment: as above; type: cell-based; conditions: S. aureus; guaiacol added as enhancing agent
Procedure: as §1, §2

[3] = system: Pseudomonas aeruginosa ATCC®9027™; experiment: MBC determination, broth microdilution with CFU enumeration; type: cell-based; conditions: P. aeruginosa; guaiacol added as enhancing agent
Procedure: The minimal bactericidal concentration (MBC) is defined as the lowest concentration of an antimicrobial agent that results in a complete killing of the microbial population (determined via standard CFU enumeration techniques) after overnight incubation. This endpoint measurement is used, together with the MIC (see above), to define the microbial susceptibility towards an antimicrobial agent. Here, the antimicrobial agent is a combination of the natural enzymes GOX+LPO.
To determine the MBC of the described combinations, a classical broth microdilution assay combined with standard CFU enumeration techniques was used to determine the susceptibility of a series of microbes commonly detected in infected wounds, including (a) the Gram-positive bacterium Staphylococcus aureus ATCC® 6538™ (results shown below), (b) the Gram-negative bacterium Pseudomonas aeruginosa ATCC®9027™ (results shown below), (c) the yeast Candida albicans ATCC®10231™ (results shown below), and (d) the fungus Aspergillus niger ATCC®16404™ (results shown below). In brief, the broth microdilution assay was set up as previously described (see 2.1). After incubation, the MBC was determined by investigating the presence of viable microorganisms at the MIC and following higher concentrations (MICx2, MICx4, and so on) using standard CFU enumeration techniques. For each combination evaluated, this test was repeated at least 5 times. The collected data were further analyzed in MS Excel. Mean concentration data (expressed as log CFU/ml) were visualized in a table format in which the MBC was highlighted.

Lactoperoxidase = Lactoperoxidase (Bos taurus, UniProt P80025); experiment: Lactoperoxidase (LPO) activity, spectrophotometric assay (ABTS); type: biochemical; conditions: concentration not given
Procedure: Lactoperoxidase is a member of the heme peroxidase family of enzymes that, together with a catalytic anion (such as I^−, derived from KI, present in the substrate), will catalyse the oxidation of H2O2, leading to hypojodite (IO^−). This hypojodite is a reactive oxygen species (ROS). To measure the enzymatic activity of LPO, a standard spectrophotometric assay is performed. In brief, H2O2 combined with 2,2′-azino-bis (3-ethylbenzothiazoline-6-sulfonzuur (ABTS) is catalysed by LPO so that the formation of a coloured compound is achieved that can in turn be measured by spectrophotometry. LPO was tested in 3 different concentrations, i.e., 50, 10 and 1 mg/ml. Each reaction mixture was tested in duplo. In the event LPO activity was evaluated in the presence of a potentiator candidate (=a molecule that might be able to augment the enzymatic activity of LPO), the latter was added in a low and high concentration ranging from 100 to 0.1 mg/ml. The blank consisted of the reaction mix in which H2O2 was absent. The absorbance was immediately measured with a plate reader (Spectramax ID3, Molecular Devices) every 12 seconds for 5 minutes at 20° C. For each combination evaluated, this test was repeated at least 2 times. Results were further analysed in MS Excel and expressed as U/g. Mean blank-corrected data±SD were plotted. Statistical significance compared to the combination without potentiator candidate (reference) was calculated using students' t-tests. Significance is achieved when the obtained p-value is lower than 0,05. Significance levels were defined as p<0.05=*; p<0.01=** and p<0.001=***.

GOX, sequence (P13006 17-605): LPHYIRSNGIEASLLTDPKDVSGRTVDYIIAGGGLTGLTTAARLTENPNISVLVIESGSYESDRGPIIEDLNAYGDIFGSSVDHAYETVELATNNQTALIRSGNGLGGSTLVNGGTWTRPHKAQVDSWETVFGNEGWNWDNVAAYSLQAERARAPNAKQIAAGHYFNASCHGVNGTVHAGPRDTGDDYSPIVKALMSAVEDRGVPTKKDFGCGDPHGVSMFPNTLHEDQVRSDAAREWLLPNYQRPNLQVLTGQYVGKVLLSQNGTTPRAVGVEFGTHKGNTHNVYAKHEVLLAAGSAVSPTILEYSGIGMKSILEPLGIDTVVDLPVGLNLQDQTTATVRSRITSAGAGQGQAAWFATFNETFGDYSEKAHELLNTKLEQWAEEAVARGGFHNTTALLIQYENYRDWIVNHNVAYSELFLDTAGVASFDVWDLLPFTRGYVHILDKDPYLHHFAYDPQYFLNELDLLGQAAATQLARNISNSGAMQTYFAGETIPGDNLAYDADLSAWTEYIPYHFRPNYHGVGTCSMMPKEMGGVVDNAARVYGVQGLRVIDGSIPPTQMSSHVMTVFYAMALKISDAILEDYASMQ

SMILES: [Br-].[K+] [KBr, potassium bromide, reference compound]
- antimicrobial efficacy against S. aureus of halide alone, 0 vs 80 minute timepoint (S. aureus (ATCC®6538™)): did not result in any difference in antimicrobial efficacy

SMILES: [Cl-].[K+] [KCl, potassium chloride, reference compound]
- antimicrobial efficacy against S. aureus of halide alone, 0 vs 80 minute timepoint (S. aureus (ATCC®6538™)): did not result in any difference in antimicrobial efficacy

SMILES: [I-].[K+] [KI, potassium iodide]
- time to complete reduction of absolute S. aureus counts (S. aureus (ATCC®6538™); alginogel with GOX+LPO (1:1), halide 0,03% (v/v)): 70 min
- time to complete reduction of absolute S. aureus counts (S. aureus (ATCC®6538™); alginogel with GOX+LPO (1:1), halide 0,003% (v/v)): 80 min
- antimicrobial efficacy against S. aureus of halide alone, 0 vs 80 minute timepoint (S. aureus (ATCC®6538™)): did not result in any difference in antimicrobial efficacy

SMILES: N[C@@H](CS)C(=O)O [cysteine, reference compound]
- GOX activity compared to reference (GOX): significant lower GOX activity

SMILES: NCCO [ethanolamine, reference compound]
- exposure time to complete reduction of absolute S. aureus counts (average) (S. aureus (ATCC®6538™); alginogel with GOX+LPO (1:1), enhancer 0,0005% (v/v)): 70 min

SMILES: COc1ccccc1O [guaiacol, reference compound]
- MIC: GOX+LPO enzyme solution needed to completely inhibit growth [1]: 0.00125 % (v/v)
- MIC: GOX+LPO enzyme solution needed to completely inhibit growth [2]: 0.0000781 % (v/v)
- MBC: GOX+LPO enzyme solution needed [3]: 0.00125 % (v/v)

SMILES: CC(C)C[C@H](N)C(=O)O [leucine, reference compound]
- LPO activity compared to reference (Lactoperoxidase): did not result in a significant difference
